# Laboratory results from publication PMC1810525, “Antagonism of the prostaglandin D2 receptor CRTH2 attenuates asthma pathology in mouse eosinophilic airway inflammation” (Respiratory Research, 2007).
# Read-outs that look alike come from different tables or passages of the source.
# Tests used:
# mTP = target: T1, mTP (Mus musculus, UniProt P30987); assay: Inositol phosphate accumulation assay, HEK cells transfected with mTP (Schild analysis vs U46619); type: cell-based
# T1 construct: expressed in transfected cells; host or cells: HEK293 (transient, pcDNA3.1(+))
# T1 sequence (P30987 1-341): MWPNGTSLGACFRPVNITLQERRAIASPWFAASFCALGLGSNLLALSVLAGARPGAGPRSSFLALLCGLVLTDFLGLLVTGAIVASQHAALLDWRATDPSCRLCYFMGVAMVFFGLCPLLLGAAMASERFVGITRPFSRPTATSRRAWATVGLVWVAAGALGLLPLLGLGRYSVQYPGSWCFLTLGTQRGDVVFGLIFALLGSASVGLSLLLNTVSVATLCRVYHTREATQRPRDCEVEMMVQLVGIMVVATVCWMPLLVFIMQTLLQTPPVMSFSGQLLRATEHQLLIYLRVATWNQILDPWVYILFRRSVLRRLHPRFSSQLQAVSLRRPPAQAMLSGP
# From the text: (§1) The coding sequence of mCRTH2 (genbank accession no. AF054507) was amplified by PCR from mouse hippocampus cDNA and inserted into the pcDNA3.1(+) expression vector (invitrogen). A HEK293 cell line, stably expressing mCRTH2 (hereafter referred to as mCRTH2-HEK cells) was generated under G418 (Gibco #11811) selection and used as described below in whole cell binding and functional inositol phosphate accumulation assays. The coding sequence of mTP (genbank accession no. D10849) was amplified by PCR from mouse spleen cDNA and inserted into pcDNA3.1(+). HEK293 cells were transiently transfected with mTP as described and assayed after 48 hr as outlined below.
# mCRTH2-HEK or HEK cells transiently transfected with mTP were seeded at a density of 30.000 cells/well in poly-D-lysine coated 96-well tissue culture plates and labeled by overnight incubation in medium containing 5 μCi myo- [2-^3H]-inositol (TRK911, Amersham Biosciences). After washing, cells were stimulated with the respective ligands in the presence of 5 mM LiCl (HBSS, GIBCO cat. 14025–050, 45 min, 37°C) and the inositol phosphate fraction was quantified using a scintillation proximity assay (SPA) as described previously. To facilitate inositol phosphate generation by the Gi-selective CRTH2 receptor, mCRTH2-HEK cells were transiently transfected with a promiscuous Gα protein [29].
# (§2) was performed using the Prism 3.0 software (GraphPad Software, San Diego) as described previously with the following exceptions: Binding data from competition binding assays were normalized to percent of specific binding of [^3H]PGD2 or [^3H]SQ29548 and the Ki was then determined using the Cheng-Prusoff equation Ki = IC50/(1+L/Kd), where L is the concentration of radioactive ligand and Kd is its dissociation constant. For Schild analysis, global fitting using the Gaddum/Schild competitive interaction model was applied after the functional concentration-response curves for the agonists PGD2 or U46619 in the absence or presence of various antagonist concentrations were normalized to percent of the maximal response obtained by agonist alone.
# [1] = tested on: OVA-challenged BALB/c mice; assay: Mouse model of allergic asthma (OVA), lung tissue eosinophils and mucus cells histology; type: in vivo; conditions: 5 mg/kg orally twice daily days 14 and 15, OVA-challenged mice, 24 hr after last challenge; p < 0.05 vs vehicle
# Description: Female BALB/c mice about 6 weeks of age (MoB A/S; Ry, Denmark) were kept in well-controlled animal housing facilities and fed ad libitum. The study was approved by the Regional Ethics Committee in Malmoe-Lund, Sweden. All groups of mice (n = 10 in each group) were immunized by intraperitoneal (i.p) injections of ovalbumin (OVA, 10 μg per injection; grade V, Sigma, St Louis, Mo) absorbed to alum adjuvant (Al(OH)3; Sigma) at day 0 as described previously. […] Control animals received saline challenge. Animals were sacrificed 24 hr after the last allergen challenge by pentobarbital i.p followed by bronchoalveolar lavage (BAL) and lung tissue sampling. In preliminary studies it was ascertained that daily allergen challenges for only a few days sufficed to produce a significant airway tissue eosinophilia as well as goblet cell hyperplasia. On days 14 and 15 mice were treated twice daily with TM30089 and ramatroban (BAY3405), 5 mg/kg orally. […] Drugs were administered 30 minutes before and 4 hr after each challenge. The dose of ramatroban was selected in accord with previous reports. Furthermore, ramatroban and TM30089 differ chemically merely by the move of one carbon atom from the carboxyl side chain in ramatroban to the sulfonamide nitrogen in TM30089 - thus they have the same molecular weight and other important structural features in common - so it is highly reasonable to assume they will have very similar PK properties. […] Eosinophils were detected by histochemical visualization of cyanide-resistant eosinophil peroxidase (EPO) activity. In brief, 5 μm cryo sections were incubated for 8 min at room temperature in PBS buffer (pH 7.4) supplemented with 3.3-diaminobenzidine tetrahydrochloride (60 mg/100 ml; Sigma), 30% H2O2 (0.3 ml/100 ml), and NaCN (120 mg/100 ml). Slides were then rinsed in tap water and mounted in […] medium (Merck, Darmstadt, Germany). […] Although the focus in this study was on tissue pathology BAL was also carried out (see below). Histology analyses were performed and quantified in a blinded manner. To compare histological data, the non-parametric Kruskal-Wallis test and followed by Connover's test was applied using Analyze ItTM (Analyse-it software Ltd., Leeds, UK). Data are expressed as mean ± SEM. A value of p < 0.05 was considered statistically significant.
# mCRTH2 = target: T2, mCRTH2 (Mus musculus, UniProt Q9Z2J6); assay: mCRTH2 whole cell competition binding ([3H]PGD2); conditions: displacement of [3H]PGD2, mCRTH2-HEK cells
# T2 construct: expressed in transfected cells
# T2 sequence (Q9Z2J6 1-382): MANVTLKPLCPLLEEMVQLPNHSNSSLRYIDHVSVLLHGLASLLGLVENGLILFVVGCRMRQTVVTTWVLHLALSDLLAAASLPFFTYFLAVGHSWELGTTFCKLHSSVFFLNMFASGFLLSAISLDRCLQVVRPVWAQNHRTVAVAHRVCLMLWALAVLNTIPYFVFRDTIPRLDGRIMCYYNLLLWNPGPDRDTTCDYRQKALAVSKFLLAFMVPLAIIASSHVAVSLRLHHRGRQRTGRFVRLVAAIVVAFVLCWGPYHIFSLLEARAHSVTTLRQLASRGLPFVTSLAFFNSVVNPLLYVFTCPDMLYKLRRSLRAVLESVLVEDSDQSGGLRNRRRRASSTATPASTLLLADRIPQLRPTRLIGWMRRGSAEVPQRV
# From the text: as §1
# Binding assays were performed essentially as described previously. In brief, mCRTH2-HEK cells or HEK cells transiently transfected with mTP were seeded into white 96 well plates (Costar #3917) at a density of 30.000 cells/well. About 18–24 hr later, whole cell competition binding experiments were performed using 0.8 nM [^3H]PGD2 (Amersham #TRK734, 166 Ci/mmol) or 0.7 nM [^3H]SQ29548 (PerkinElmer #NET-936, 48.2 Ci/mmol), for mCRTH2 and mTP respectively. Total and nonspecific binding were determined in the absence and presence of 10 μM PGD2 for mCRTH2 and 10 μM U46619 for mTXA2 receptors.
# as §2
SMILES,effect on signaling of mTP (mTP; InsP functional assay),allergen challenge-induced mucus cell hyperplasia [1],allergen challenge-induced peribronchial lung tissue eosinophilia [1],pKi mCRTH2 (mCRTH2),"Ki (mCRTH2; printed in brackets after pKi, read-out: Ki mCRTH2) [nM]","Schild slope mTP (mTP; Schild analysis, U46619 concentration-response, InsP)","Kb (mTP; Schild analysis, U46619 concentration-response, InsP, read-out: pA2 mTP (converted)) [nM]",Ki (mCRTH2; read-out: pKi mCRTH2 (converted)) [nM]
CN(C1CCc2c(c3ccccc3n2CC(=O)O)C1)S(=O)(=O)c1ccc(F)cc1 (stereo not shown) [TM30089],does not interfere with signaling of mTP,significantly diminished,significantly diminished,8.96 ± 0.05,1.1,–,–,–
"O=C(O)CCn1c2c(c3ccccc31)C[C@H](NS(=O)(=O)c1ccc(F)cc1)CC2 [ramatroban, reference compound]",–,significantly diminished,significantly diminished,–,–,1.35 ± 0.06,0.437,4.17
